The term pIC50 denotes the IC50 on a negative log10 scale, so that one unit is a factor of ten.

pIC50: −log10 of the molar value.

In patent US20230271956A1, “AMIDE DERIVATIVES” (Merck Patent GmbH, priority 2020, published 2023) one finds IC50 data, which are given here for one compound.

The target in this experiment is T1, human rec ACSS2 (Homo sapiens, UniProt Q9NR19).
T1 construct: myc (C); purchased Origene
The experiment in a line: Biochemical activity ACSS2 assay (AMP-Glo). The following applies: human recombinant ACSS2, AMP-Glo, 180 min at 37° C. In short, it runs like this: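 C-terminal myc-tagged human recombinant ACSS2 (1 nM) reacted with 100 µM ATP, 100 µM CoA and 500 µM acetate (final) in pH 7.5 Hepes buffer for 180 min at 37° C, compound in 10 concentrations from 30 µM. Released AMP detected by AMP-Glo luminescence. IC50 normalised to inhibitor-free reaction and 5 µM reference inhibitor.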

T1 sequence (Q9NR19 whole entry): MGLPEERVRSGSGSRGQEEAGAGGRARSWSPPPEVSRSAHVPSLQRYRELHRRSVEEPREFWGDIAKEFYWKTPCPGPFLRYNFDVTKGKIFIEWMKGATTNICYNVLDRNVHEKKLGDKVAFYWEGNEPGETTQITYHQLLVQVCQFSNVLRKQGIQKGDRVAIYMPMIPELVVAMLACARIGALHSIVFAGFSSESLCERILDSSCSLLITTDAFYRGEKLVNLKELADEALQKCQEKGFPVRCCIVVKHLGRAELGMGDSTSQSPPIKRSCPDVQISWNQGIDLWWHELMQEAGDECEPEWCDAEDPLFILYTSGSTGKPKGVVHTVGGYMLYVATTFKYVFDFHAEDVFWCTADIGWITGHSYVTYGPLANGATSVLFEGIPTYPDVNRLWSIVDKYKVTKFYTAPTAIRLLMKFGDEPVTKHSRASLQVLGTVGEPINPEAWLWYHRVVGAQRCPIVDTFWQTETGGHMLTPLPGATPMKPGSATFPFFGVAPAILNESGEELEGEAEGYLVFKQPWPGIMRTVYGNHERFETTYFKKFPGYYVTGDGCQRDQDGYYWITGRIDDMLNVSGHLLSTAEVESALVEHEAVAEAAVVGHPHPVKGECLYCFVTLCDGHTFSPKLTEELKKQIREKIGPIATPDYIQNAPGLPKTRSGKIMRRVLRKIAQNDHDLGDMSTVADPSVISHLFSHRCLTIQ

On to `CCc1c(C(O)(c2ccccc2)c2ccccc2)nc2cc(F)c(C(=O)Nc3ncn(CC)n3)cn12` [Compound 20, 3-Ethyl-7-fluoro-2-(hydroxy-diphenylmethyl)-imidazo[1,2-a]pyridine-6-carboxylic acid (1-ethyl-1H-[1,2,4]triazol-3-yl)-amide], for which the pIC50 is 8.00 to 9.00.
